In patent US20070161697A1, “Hydrazide type compounds and the use thereof in pharmaceutical compositions for the treatment of cardiovascular diseases” (priority 2004, published 2007):
Structures can show the parent of a compound that is named as a salt. Where two headings read alike, the source gives them in different places.

Tests used:
THP1 cells [1] = test: Inhibition of binding and accumulation of cyanine 3-marked LDLox as lipid vesicles in differentiated THP1 macrophage cells; format: cell-based; conditions: Homo sapiens, 2.5 μM
Protocol: The culture medium may be replaced every two days.
In the present example, the accumulation of lipid vesicles within the cell was measured using THP1 cells following fixation with paraformaldehyde in PBS medium using a solution containing a fluorescent marker of the Oil Red O type in order to visualise the vesicles. The image of the cells rich in vesicles was analysed using a microscope ecqluipped with a CCD camera and software necessary for the analysis.
The medium was replaced every 2-3 days.
The differentiated THP-1 were subsequently incubated with LDLox coupled with cyanine-3 (1.5 μg/ml) in the presence or absence of the molecule CGP02-01 (concentrations of between 10^−5M and 3.1.6 10^−10M) for 24 hours at 37° C., 5% CO2. […] Each image was analysed and quantified with the MetaMorph software (Universal Imaging).

THP1 cells [2] = test: as above; format: cell-based; conditions: 3 μg/ml oxLDL-cyanine 3, 25 hours, different concentrations, FIG. 7
Wistar rats [3] = test: Circulating triglycerides, rats on dietary regimen rich in fructose; format: in vivo; conditions: oral
Protocol: Secondly, the activity of the compound CGP 02-01 was studied using a reference rat-fructose model. Groups of Wistar rats (n=12) were subjected for 3 weeks to a dietary regimen containing […] of fructose. […] Groups of rats subsequently received by forced feeding 50 mg/kg of the compound CGP 02-01 dissolved in a 2% tween solution prepared in methylcellulose. The blood samples for the biochemical analyses were performed after 1, 2 and 3 weeks. Independent groups of rats wee treated under the same conditions with metformin hydrochloride at a dose of 50 mg/kg. The metformin served as a reference in this metabolic syndrome model. Assay of serum triglycerides may be performed enzymatically using the commercially available kit. One may use kits from Biomérieux for example (ref. 61.238). In summary, the triglycerides are treated with a lipase in order to generate fatty acids. In the presence of ATP, the glycerol is transformed by glycerokinase into glycerol 3 phosphate. The glycerol 3 phosphate is subsequently transformed into dihydroxyacetone in generating oxygenated water (H202) which may be detected by formation of quinoneimine in the presence of parachlorophenol, amino-4-antipyrin and peroxidase. The intensity of the quinoneimine coloration is subsequently measured at 505 nm. This coloration is proportional to the quantity of triglycerides present in the sample.

Wistar rats [4] = test: Insulin in plasma, rats on dietary regimen rich in fructose; format: in vivo; conditions: 50 mg/kg oral
Protocol: Secondly, the activity of the compound CGP 02-01 was studied using a reference rat-fructose model. Groups of Wistar rats (n=12) were subjected for 3 weeks to a dietary regimen containing […] of fructose. […] Groups of rats subsequently received by forced feeding 50 mg/kg of the compound CGP 02-01 dissolved in a 2% tween solution prepared in methylcellulose. The blood samples for the biochemical analyses were performed after 1, 2 and 3 weeks. Independent groups of rats wee treated under the same conditions with metformin hydrochloride at a dose of 50 mg/kg. The metformin served as a reference in this metabolic syndrome model. Assay of insulin in plasma may be performed by radioimmunological assay using commercially available kits comprising specific anti-insulin antibodies of mice or rats. One may for example use the rat/mouse ELISA kits, Linco research (ref. EZRMI-13K).

Wistar rats [5] = test: Total cholesterol in plasma, rats on dietary regimen rich in fructose; format: in vivo; conditions: 50 mg/kg oral, 3 weeks of treatment
Protocol: Secondly, the activity of the compound CGP 02-01 was studied using a reference rat-fructose model. Groups of Wistar rats (n=12) were subjected for 3 weeks to a dietary regimen containing […] of fructose. Under these conditions, the rats develop a metabolic syndrome comprising hyperglycaemia, hyperinsulinaemia, hypercholesterolaemia and hypertriglyceridaemia. Groups of rats subsequently received by forced feeding 50 mg/kg of the compound CGP 02-01 dissolved in a 2% tween solution prepared in methylcellulose. The blood samples for the biochemical analyses were performed after 1, 2 and 3 weeks. Independent groups of rats wee treated under the same conditions with metformin hydrochloride at a dose of 50 mg/kg. The metformin served as a reference in this metabolic syndrome model. The circulating total cholesterol may be measured by enzymatic assay using the commercially available kit. This assay may for example use an enzymatic sequence of the cholesterol-esterase/cholesteroloxydase/chromogenic peroxidase type. In summary, the total esterified cholesterol is transformed into free cholesterol and fatty acid by the action of cholesterol esterase. The non-esterified cholesterol is subsequently measured by the formation of quinoeimine in the presence of cholesterol oxidase and peroxidise. The intensity of the quinoneimine coloration is proportional to the quantity of cholesterol present in the sample.

[6] = THP-1, cells expressing the scavenger CD36, lipoproteins marked with cyanine 3, read-out: Inhibition of accumulation of LDLox in (%)
[7] = THP-1 cells, 24 hours, read-out: Inhibition at 2.5 μM on THP-1 cells (24 hours)

SMILES | inhibition at 2.5 µM (THP1 cells [1]; [6]) | inhibition at 2.5 µM (THP1 cells [1]; [7]) | further results
COc1cc(O)c(/C=N/NC(=O)C=Cc2ccco2)c(OC)c1 (stereo in doubt) [CGP02-02, (2Z)-3-(2-furyl)-N′-[(1E)-(2-hydroxy-4,6-dimethoxyphenyl)methylene] acrylohydrazide] | 64% | 64% | Inhibition of formation of foamy cells (THP1 cells [2]): inhibition of formation of foamy cells
CCC(=O)Nc1cccc(C(=O)N/N=C/c2c(O)cc(OC)cc2OC)c1 [CGP02-06] | 71% | 71% | 
COc1cc(O)c(/C=N/NC(=O)c2ccco2)c(OC)c1 [CGP02-07, 2-furancarboxylic acid (2-hydroxy-4,6-dimethoxy-benzylidene)-hydrazide] | 63% | 63% | 
CCN(CC)c1ccc(/C=N/NC(=O)c2ccc(OC)c(OC)c2)c(O)c1 [CGP02-17, 3,4-dimethoxybenzoic acid (4-diethylamino-2-hydroxy-benzylidene)-hydrazide] | 88% | 88% | 
COc1cc(O)c(/C=N/NC(=O)c2c(F)cccc2F)c(OC)c1 [CGP02-13, 2,6-difluorobenzoic acid (2-hydroxy-4,6-dimethoxybenzylidene)-hydrazide] | 68% | 68% | 
Cc1nn(-c2ccccc2)c(C)c1/C=N/NC(=O)c1ccc([N+](=O)[O-])o1 [CGP02-12] | 43% | 43% | 
COc1cc(O)c(/C=N/NC(=O)c2ccccc2CCc2ccccc2)c(OC)c1 [CGP02-05, 2-phenethylbenzoic acid (2-hydroxy-4,6-dimethoxy-benzylidene)-hydrazide] | 77% | 77% | 
COc1cc(O)c(/C=N/NC(=O)c2ccc(N(C)C)cc2)c(OC)c1 [CGP02-04] | 61% | 61% | 
COc1cc(O)c(/C=N/NC(=O)Cc2c[nH]c3ccccc23)c(OC)c1 [CGP02-08, (1H-indol-3-yl) acetic acid (2-hydroxy-4,6-dimethoxybenzylidene)-hydrazide] | 58% | 58% | 
COc1cc(O)c(/C=N/NC(=O)c2ccc(C)s2)c(OC)c1 [CGP02-03, N′-[(1E)-(2-hydroxy-4,6-dimethoxyphenyl)methylene]-5-methylthiophene-2-carbohydrazide] | 82% | 82% | Inhibition of formation of foamy cells (THP1 cells [2]): inhibition of formation of foamy cells
COc1cc(O)c(/C=N/NC(=O)c2ccc(C(F)(F)F)cc2)c(OC)c1 [CGP02-16, 4-trifluoromethylbenzoic acid (2-hydroxy-4,6-dimethoxy-benzylidene)-hydrazide] | 77% | 77% | 
COc1cc(O)c(/C=N/NC(=O)c2ccccc2Oc2ccccc2)c(OC)c1 [CGP02-11, 2-phenoxy-benzoic acid (2-hydroxy-4,6-dimethoxybenzylidene)-hydrazide] | 44% | 44% | 
CN(C)C(=N)N=C(N)N [Metformin, metformin hydrochloride, reference compound] |  |  | Plasma triglyceride level (Wistar rats [3]; 50 mg/kg, 3 weeks, control 1.39±0.13): 1.21 ± 0.08 g/L; Effect on plasma triglyceride level (Wistar rats [3]; same conditions): does not have any effect; Variation (reduction) of insulin level (Wistar rats [4]): 16.2%; Reduction in total cholesterol (Wistar rats [5]): 16%; Plasma total cholesterol level (Wistar rats [5]; control 0.79±0.05): 0.66 ± 0.02 g/L
COc1cc(O)c(/C=N/NC(=O)CC2Sc3ccccc3NC2=O)c(OC)c1 (centres unmarked) [CGP02-10] | 52% | 52% | 
O=C(N/N=C/c1cc(Br)cc(Br)c1O)c1cc2ccccc2s1 [CGP02-18, benzo[b]thiophene-2-carboxylic acid (3,5-dibromo-2-hydroxy-benzylidene)-hydrazide] | 78% | 78% | 
